Calls of active or inactive are those of the source.
How the values were obtained:
[1] = tested on: Rattus norvegicus; test: Analgesic activity in rat assessed reduction formalin-induced second phase pain response at 100 mg/kg, iv administered 8 mins post formalin challenge; format: functional, organism-based; parameters: dose 100 mg/kg
[2] = tested on: Rattus norvegicus; test: Analgesic activity in Sprague-Dawley rat L5/L6 spinal nerve injury Chung model of neuropathic pain assessed as […] hair-induced paw withdrawal threshold at 100 mg/kg, iv measured after 15 to 90 mins relative to vehicle-treated control; format: functional, organism-based; parameters: dose 100 mg/kg
[3] = tested on: Rattus norvegicus; test: Analgesic activity in rat assessed reduction formalin-induced initial pain response at 100 mg/kg, iv administered 2 mins before formalin challenge; format: functional, organism-based; parameters: dose 100 mg/kg
[4] = tested on: Rattus norvegicus; test: Analgesic activity in Sprague-Dawley rat L5/L6 spinal nerve injury Chung model of neuropathic pain assessed as […] hair-induced paw withdrawal threshold at 10 mg/kg, iv measured after 15 mins relative to vehicle-treated control; format: functional, organism-based; parameters: dose 10 mg/kg
[5] = biological target: Potassium voltage-gated channel subfamily KQT member 2 (Mus musculus) (UniProt Q9Z351); test: Induction of mouse KCNQ2 expressed in HEK293 cells at -40 mV holding potential by whole-cell patch clamp assay relative to (+/-)-N-(1-(benzo[d][1,3]dioxol-5-yl)ethyl)-3-(2-chlorophenyl)acrylamide; format: cell-based
[6] = biological target: Potassium voltage-gated channel subfamily KQT member 2 (Mus musculus, UniProt Q9Z351); test: Induction of mouse KCNQ2 expressed in HEK293 cells at -40 mV holding potential by whole-cell patch clamp assay; format: cell-based
[7] = Drug uptake in Sprague-Dawley rat brain at 1 mg/kg, iv measured after 15 mins; format: ADME, organism-based; parameters: dose 1 mg/kg, route intravenous; settings: read-out: Drug uptake
[8] = Drug uptake in Sprague-Dawley rat brain at 1 mg/kg, iv measured after 1 hr; format: ADME, organism-based; parameters: dose 1 mg/kg, route intravenous; settings: read-out: Drug uptake
[9] = tested on: Rattus norvegicus; test: Analgesic activity in Sprague-Dawley rat L5/L6 spinal nerve injury Chung model of neuropathic pain assessed as […] hair-induced paw withdrawal threshold at 3 mg/kg, iv measured after 15 to 90 mins relative to vehicle-treated control; format: functional, organism-based; parameters: dose 3 mg/kg
[10] = tested on: Rattus norvegicus; test: Analgesic activity in STZ-induced diabetic neuropathy rat model assessed as prolongation of reversal of hypersensitivity time at 3 mg/kg, iv measured after 15 to 90 mins relative to vehicle-treated control; format: functional
[11] = tested on: Rattus norvegicus; test: Analgesic activity in rat assessed reduction formalin-induced second phase pain response at 10 mg/kg, iv administered 8 mins post formalin challenge; format: functional, organism-based; parameters: dose 10 mg/kg
[12] = biological target: Potassium voltage-gated channel subfamily KQT member 2 (Mus musculus) (UniProt Q9Z351); test: Induction of mouse KCNQ2 expressed in HEK293 cells at -40 mV holding potential by whole-cell patch clamp assay relative to retigabine; format: cell-based
[13] = tested on: Rattus norvegicus; test: Analgesic activity in rat assessed reduction formalin-induced initial pain response at 10 mg/kg, iv administered 2 mins before formalin challenge; format: functional, organism-based; parameters: dose 10 mg/kg
[14] = tested on: Rattus norvegicus; test: Toxicity in Sprague-Dawley rat assessed as […] at 10 mg/kg, iv after 10 mins by rotorod test; format: organism-based; parameters: dose 10 mg/kg, route intravenous; settings: in vivo

Potassium voltage-gated channel subfamily KQT member 2 (Mus musculus), sequence (Q9Z351 whole entry): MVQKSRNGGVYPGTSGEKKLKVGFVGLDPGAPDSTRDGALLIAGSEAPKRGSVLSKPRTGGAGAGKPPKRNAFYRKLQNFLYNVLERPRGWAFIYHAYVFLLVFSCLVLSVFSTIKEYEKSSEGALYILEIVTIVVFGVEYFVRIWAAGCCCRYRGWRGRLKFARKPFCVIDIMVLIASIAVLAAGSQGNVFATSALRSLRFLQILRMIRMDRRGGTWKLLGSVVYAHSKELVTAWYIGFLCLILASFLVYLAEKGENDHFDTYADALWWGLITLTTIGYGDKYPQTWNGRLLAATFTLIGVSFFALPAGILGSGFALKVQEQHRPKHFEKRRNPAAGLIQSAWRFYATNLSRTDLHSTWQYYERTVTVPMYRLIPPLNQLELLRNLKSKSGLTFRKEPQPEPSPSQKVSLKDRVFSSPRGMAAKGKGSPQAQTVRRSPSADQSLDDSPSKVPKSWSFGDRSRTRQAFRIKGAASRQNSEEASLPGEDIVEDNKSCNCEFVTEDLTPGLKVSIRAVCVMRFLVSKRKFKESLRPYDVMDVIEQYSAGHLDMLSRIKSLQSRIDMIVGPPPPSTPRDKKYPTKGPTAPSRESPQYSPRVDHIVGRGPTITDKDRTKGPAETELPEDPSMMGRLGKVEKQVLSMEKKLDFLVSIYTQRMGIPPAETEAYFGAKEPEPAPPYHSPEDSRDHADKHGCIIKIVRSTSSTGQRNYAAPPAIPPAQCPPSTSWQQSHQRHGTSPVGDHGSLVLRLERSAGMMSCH
Potassium voltage-gated channel subfamily KQT member 2, sequence (Q9Z351 whole entry): as above

SMILES: NCC1(CC(=O)O)CCCCC1
- Activity [1]: Active
- Activity [2]: Active
- Activity [3]: inactive

SMILES: C[C@H](NC(=O)/C=C/c1cc(F)ccc1F)c1cccc(Oc2ccncc2)c1
- Activity [4]: Active
- Ratio [5]: 2.9
- EC50 [6]: 0.9 nM
- concentration at 0.25 h [7]: 160 nM
- concentration at 1 h [8]: 42 nM

SMILES: C[C@H](NC(=O)/C=C/c1ccccc1Cl)c1ccc2c(c1)OCO2
- Ratio [5]: 1.1

SMILES: C[C@H](NC(=O)/C=C/c1ccccc1F)c1cccc(Oc2cccnc2)c1
- Activity [4]: Active
- Activity [9]: inactive
- Time [10]: 15 min
- Ratio [5]: 2.2
- Activity [11]: Active
- Efficacy [12]: 38%
- EC50 [6]: 2.4 nM
- concentration at 0.25 h [7]: 2000 nM
- concentration at 1 h [8]: 560 nM
- Activity [13]: Active
- Activity [14]: Non-toxic

SMILES: C[C@@H](NC(=O)/C=C/c1cc(F)ccc1F)c1cccc(Oc2ccncc2)c1
- EC50 [6]: > 10000 nM

SMILES: CCOC(=O)Nc1ccc(NCc2ccc(F)cc2)cc1N
- Ratio [5]: 1.6

SMILES: C[C@H](NC(=O)/C=C/c1ccccc1F)c1cccc(-c2ccc(F)nc2)c1
- Ratio [5]: 0.85

SMILES: C[C@H](NC(=O)/C=C/c1ccccc1)c1cccc(N2CCOCC2)c1
- Ratio [5]: 1.4

SMILES: C[C@H](NC(=O)/C=C/c1ccccc1F)c1ccc2c(c1)N(CC1CC1)CCO2
- Ratio [5]: 1.8

SMILES: C[C@@H](NC(=O)/C=C/c1ccccc1F)c1cccc(Oc2cccnc2)c1
- EC50 [6]: > 10000 nM
